Laboratory results taken from PMC10786919, “Design-rules for stapled peptides with in vivo activity and their application to Mdm2/X antagonists” (Nature Communications, 2024).
≈ marks a conversion by molar mass, not a printed value. Like-named read-outs stand apart in the source and are kept apart here. Positions of bridges follow the written chain, without caps; N, C: chain ends. Non-standard residues stand in square brackets, D forms with d. Residues, ends and D or L forms follow the SMILES beside them. Trp(6-Cl) = N[C@@H](Cc1c[nH]c2cc(Cl)ccc12)C(=O)O; Lys(N3) = [N-]=[N+]=NCCCC[C@H](N)C(=O)O; hArg = N=C(N)NCCCC[C@H](N)C(=O)O; R8 = C=CCCCCCC[C@@](C)(N)C(=O)O; Cba = N[C@@H](CC1CCC1)C(=O)O; S5 = C=CCCC[C@](C)(N)C(=O)O; βAla = NCCC(=O)O; Sar = CNCC(=O)O

Key:
[1] = physchem
[2] = Lactate dehydrogenase (LDH) release assay; format: cell-based
In short: (§1)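 HCT116 cells stably carrying a p53-responsive β-lactamase reporter were seeded at 8000 cells per well with a final DMSO level of 0.5%. Membrane integrity was assessed by lactate dehydrogenase release using a homogeneous fluorometric kit. Values are geometric means of at least three biological replicates.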

[3] = Nanoclick permeability assay
In short: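 Azido-peptide permeability was read as loss of NanoBRET signal (donor 450 nm, acceptor 610 nm) after adding NanoBret618-azide at 10 μM final.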

[4] = Solubility assay (kinetic solubility, PBS pH 7); format: physicochemical; details: pH 7, PBS; for solubility kinetic: pH 7, aqueous buffer, kinetic from dmso stock, read-out: Solubility
In short: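 Values derive from peak-area ratios of sample versus a 100 µM standard, scaled by that standard's concentration.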

[5] = Experimental LogD (partition coefficient); details: for logD: not stated, Partition Coeff LogD
[6] = system: HCT116 cells; assay: Lactate dehydrogenase (LDH) release assay; format: cell-based
In short: as §1

[7] = Nanoclick permeability assay EC50

Row | Compound | EPSA [1] [A^2] | EC50 ([2]; 0% FBS 4Hr, read-out: LDH: Cytotoxicity assay: EC50) [nM] | EC50 ([2]; 4 hours, 0% serum, read-out: LDH Cytotoxicity assay EC50) [nM] | cell entry EC50 [3] [nM] | solubility kinetic [4] [µM] | logD [5] | EC50 ([2]; LDH: Cytotoxicity assay: EC50) [nM] | cell entry EC50 [3, 7] [nM] | Solubility [4] | Partition Coeff LogD [5] | LDH: Cytotoxicity assay: % Effect [6] [%]
1 | CC(=O)N[C@@H](CCCCN=[N+]=[N-])C(=O)NCCC(=O)N[C@@H](CC(C)C)C(=O)N[C@H](C(=O)N[C@@H](Cc1ccccc1)C(=O)N[C@]1(C)CCCCCCC=CCCC[C@@](C)(C(=O)N[C@@H](CO)C(=O)N[C@@H](C)C(=O)N[C@@H](C)C(N)=O)NC(=O)[C@H](CC2CCC2)NC(=O)[C@H](CCC(N)=O)NC(=O)[C@H](C)NC(=O)[C@H](C)NC(=O)[C@H](Cc2ccc(O)cc2)NC(=O)[C@H](CCC(=O)O)NC1=O)[C@@H](C)O [MP-893, AZIDE-ATSP-7041(W7A)] | 192 | 15000 | 15000 | 1230 | 51 (≈ 94.6 µg/mL) | 2.88 | – | – | – | – | –
2 | CC(=O)N[C@@H](CCCCN=[N+]=[N-])C(=O)NCCC(=O)N[C@@H](CC(C)C)C(=O)N[C@H](C(=O)N[C@@H](Cc1ccccc1)C(=O)N[C@]1(C)CCCCCCC=CCCC[C@@](C)(C(=O)N[C@@H](CO)C(=O)N[C@@H](C)C(=O)N[C@@H](C)C(N)=O)NC(=O)[C@H](CC2CCC2)NC(=O)[C@H](CCC(N)=O)NC(=O)[C@H](C)NC(=O)[C@H](Cc2c[nH]c3ccccc23)NC(=O)[C@H](Cc2ccc(O)cc2)NC(=O)[C@@H](C)NC1=O)[C@@H](C)O [MP-473] (Ac-[Lys(N3)][βAla]LTF[R8][dA]YWAQ[Cba][S5]SAA-NH2; staple 6-13) | 213 | – | – | – | – | 3.49 | > 50000 | 197 | Poorly Behaved | – | –
3 | CC(=O)N[C@@H](CCCCN=[N+]=[N-])C(=O)NCCC(=O)N[C@H](C)C(=O)N[C@H](C(=O)N[C@@H](Cc1ccccc1)C(=O)N[C@]1(C)CCCCCCC=CCCC[C@@](C)(C(=O)N[C@@H](CO)C(=O)N[C@@H](C)C(=O)N[C@@H](C)C(N)=O)NC(=O)[C@H](CC2CCC2)NC(=O)[C@H](CCC(N)=O)NC(=O)[C@H](C)NC(=O)[C@H](Cc2c[nH]c3ccccc23)NC(=O)[C@H](Cc2ccc(O)cc2)NC(=O)[C@H](CCC(=O)O)NC1=O)[C@@H](C)O [MP-7470] | 228 | – | – | – | 90 (≈ 174 µg/mL) | 2.72 | > 50000 | > 10000 | – | – | –
4 | CC(=O)N[C@@H](CCCCN=[N+]=[N-])C(=O)NCCC(=O)N[C@@H](CC(C)C)C(=O)N[C@H](C(=O)N[C@@H](Cc1ccccc1)C(=O)N[C@]1(C)CCCCCCC=CCCC[C@@](C)(C(=O)N[C@@H](CO)C(=O)N[C@@H](C)C(=O)N[C@@H](C)C(N)=O)NC(=O)[C@H](CC2CCC2)NC(=O)[C@@H]2CCCCNC(=O)CC[C@H](NC1=O)C(=O)N[C@@H](Cc1ccc(O)cc1)C(=O)N[C@@H](Cc1c[nH]c3ccccc13)C(=O)N[C@@H](C)C(=O)N2)[C@@H](C)O [MP-001] (Ac-[Lys(N3)][βAla]LTF[R8]EYWAK[Cba][S5]SAA-NH2; staple 6-13; lactam 7-11) | 173 | – | – | – | – | 3.84 | > 50700 | 1150 | – | – | –
5 | CC(=O)N[C@@H](CCCCN=[N+]=[N-])C(=O)NCCC(=O)N[C@@H](CC(C)C)C(=O)N[C@H](C(=O)N[C@@H](Cc1ccccc1)C(=O)N[C@]1(C)CCCCCCC=CCCC[C@@](C)(C(=O)N[C@@H](CO)C(=O)N[C@@H](C)C(=O)N[C@@H](C)C(N)=O)NC(=O)[C@H](CC2CCC2)NC(=O)[C@H](CCC(N)=O)NC(=O)[C@H](C)NC(=O)[C@H](Cc2c[nH]c3ccccc23)NC(=O)[C@H](CCC(=O)O)NC(=O)[C@H](C)NC1=O)[C@@H](C)O [MP-029] (Ac-[Lys(N3)][βAla]LTF[R8]AEWAQ[Cba][S5]SAA-NH2; staple 6-13) | 182 | – | – | – | – | – | > 50700 | 70 | Poorly Behaved | Poorly Behaved | –
6 | CC(=O)N[C@@H](CCCCN=[N+]=[N-])C(=O)NCCC(=O)N[C@@H](CC(C)C)C(=O)N[C@H](C(=O)N[C@@H](Cc1ccccc1)C(=O)N[C@]1(C)CCCCCCC=CCCC[C@@](C)(C(=O)N[C@@H](CO)C(=O)N[C@@H](C)C(=O)N[C@@H](C)C(N)=O)NC(=O)[C@H](CC2CCC2)NC(=O)CNC(=O)[C@H](C)NC(=O)[C@H](Cc2c[nH]c3ccccc23)NC(=O)[C@H](Cc2ccc(O)cc2)NC(=O)[C@H](CCC(=O)O)NC1=O)[C@@H](C)O [MP-262] (Ac-[Lys(N3)][βAla]LTF[R8]EYWAG[Cba][S5]SAA-NH2; staple 6-13) | 207 | – | – | – | 87 (≈ 165 µg/mL) | 2.85 | > 50600 | 106 | – | – | –
7 | CC(=O)N[C@@H](CCCCN=[N+]=[N-])C(=O)NCCC(=O)N[C@@H](CCCCNC(=N)N)C(=O)N[C@H](C(=O)N[C@@H](Cc1ccccc1)C(=O)N[C@]1(C)CCCCCCC=CCCC[C@@](C)(C(=O)N[C@@H](CO)C(=O)N[C@@H](C)C(=O)N[C@@H](C)C(N)=O)NC(=O)[C@H](CC2CCC2)NC(=O)[C@H](CCC(N)=O)NC(=O)[C@H](C)NC(=O)[C@H](Cc2c[nH]c3ccccc23)NC(=O)[C@H](Cc2ccc(O)cc2)NC(=O)[C@H](CCC(=O)O)NC1=O)[C@@H](C)O [MP-6896] (Ac-[Lys(N3)][βAla][hArg]TF[R8]EYWAQ[Cba][S5]SAA-NH2; staple 6-13) | 203 | – | – | – | 2.5 (≈ 5.07 µg/mL) | 2.79 | – | 1130 | – | – | –
8 | CC(=O)N[C@@H](CCCCN=[N+]=[N-])C(=O)NCCC(=O)N[C@H](CC(C)C)C(=O)N[C@H](C(=O)N[C@@H](Cc1ccccc1)C(=O)N[C@]1(C)CCCCCCC=CCCC[C@@](C)(C(=O)N[C@@H](CO)C(=O)N[C@H](C)C(=O)N[C@@H](C)C(N)=O)NC(=O)[C@H](CC2CCC2)NC(=O)[C@H](C)NC(=O)[C@H](C)NC(=O)[C@H](Cc2c[nH]c3cc(Cl)ccc23)NC(=O)[C@H](Cc2ccc(O)cc2)NC(=O)[C@H](C)NC1=O)[C@@H](C)O [MP-493] (Ac-[Lys(N3)][βAla][dL]TF[R8]AY[Trp(6-Cl)]AA[Cba][S5]S[dA]A-NH2; staple 6-13) | 187 | – | – | – | < 1 | 3.93 | > 50600 | 84.5 | – | – | –
9 | CC(=O)N(C)CC(=O)N[C@@H](CCCCN=[N+]=[N-])C(=O)NCCC(=O)N[C@@H](C)C(=O)N[C@H](C(=O)N[C@@H](Cc1ccccc1)C(=O)N[C@]1(C)CCCCCCC=CCCC[C@@](C)(C(=O)N[C@@H](C)C(=O)N[C@@H](C)C(=O)N[C@@H](C)C(N)=O)NC(=O)[C@H](CC2CCC2)NC(=O)[C@H](C)NC(=O)[C@H](C)NC(=O)[C@H](Cc2c[nH]c3ccccc23)NC(=O)[C@H](Cc2ccc(O)cc2)NC(=O)[C@H](C)NC1=O)[C@@H](C)O [MP-895] (Ac-[Sar][Lys(N3)][βAla]ATF[R8]AYWAA[Cba][S5]AAA-NH2; staple 7-14) | 184 | – | – | – | 2 (≈ 3.74 µg/mL) | 3.46 | > 50600 | 197 | – | – | –
10 | CC(=O)N[C@@H](CCCCN=[N+]=[N-])C(=O)NCCC(=O)N[C@@H](CC(C)C)C(=O)N[C@H](C(=O)N[C@@H](Cc1ccccc1)C(=O)N[C@]1(C)CCCCCCC=CCCC[C@@](C)(C(=O)N[C@@H](CO)C(=O)N[C@H](C)C(=O)N[C@@H](C)C(N)=O)NC(=O)[C@H](CC2CCC2)NC(=O)[C@H](CCC(N)=O)NC(=O)[C@H](C)NC(=O)[C@H](Cc2c[nH]c3cc(Cl)ccc23)NC(=O)[C@H](Cc2ccc(O)cc2)NC(=O)[C@H](CCC(=O)O)NC1=O)[C@@H](C)O [MP-494] | 210 | – | – | – | 86.5 (≈ 173 µg/mL) | 3.33 | > 50600 | 706 | – | – | –
11 | CC(=O)N[C@H](C)C(=O)N[C@H](C)C(=O)N[C@H](C)C(=O)N[C@H](C)C(=O)N[C@@H](CC(C)C)C(=O)N[C@H](C(=O)N[C@@H](Cc1ccccc1)C(=O)N[C@]1(C)CCCCCCC=CCCC[C@@](C)(C(=O)N[C@@H](CO)C(=O)N[C@@H](C)C(=O)N[C@@H](C)C(N)=O)NC(=O)[C@H](CC2CCC2)NC(=O)[C@H](CCC(N)=O)NC(=O)[C@H](C)NC(=O)[C@H](Cc2c[nH]c3ccccc23)NC(=O)[C@H](Cc2ccc(O)cc2)NC(=O)[C@H](CCC(=O)O)NC1=O)[C@@H](C)O [MP-365] | 210 | – | – | – | 76.3 (≈ 155 µg/mL) | 2.6 | > 50600 | – | – | – | -0.1776
12 | CC(=O)N[C@@H](CC(C)C)C(=O)N[C@H](C(=O)N[C@@H](Cc1ccccc1)C(=O)NC(C)(C)C(=O)N[C@@H](CCC(=O)O)C(=O)N[C@@H](Cc1ccc(O)cc1)C(=O)N[C@@H](Cc1c[nH]c2ccccc12)C(=O)N[C@H](CCC(N)=O)C(=O)N[C@@H](CC(C)C)C(=O)N[C@@H](CC1CCC1)C(=O)NC(C)(C)C(=O)N[C@@H](CO)C(=O)N[C@@H](C)C(=O)N[C@@H](C)C(N)=O)[C@@H](C)O [MP-786] | 187 | – | – | – | 170 (≈ 283 µg/mL) | 1.99 | > 50600 | – | – | – | 7.785
13 | CC(=O)N[C@@H](CC(C)C)C(=O)N[C@H](C(=O)N[C@@H](Cc1ccccc1)C(=O)NC(C)(C)C(=O)N[C@H](CCC(=O)O)C(=O)N[C@@H](Cc1ccc(O)cc1)C(=O)N[C@@H](Cc1c[nH]c2ccccc12)C(=O)N[C@@H](CCC(N)=O)C(=O)N[C@@H](CC(C)C)C(=O)N[C@@H](CC1CCC1)C(=O)NC(C)(C)C(=O)N[C@@H](CO)C(=O)N[C@@H](C)C(=O)N[C@@H](C)C(N)=O)[C@@H](C)O [MP-789] | 196 | – | – | – | 28 (≈ 46.6 µg/mL) | 2.12 | > 50600 | – | – | – | 5.465
